Data on five compounds can be found in US9265761B2, “Compositions and methods for treating purpura” (ALLERGAN, INC., priority 2007, dated 2016).

Where a name gives a salt, the structure may show the parent alone. Read-outs that look alike come from different tables or passages of the source.

One data set has as its system purpura. The data set can be described thus: Resolution of pulsed-dye laser induced purpura, topical application after laser (Example 1). Particulars: commercial solutions applied topically every 6-8 hours after pulsed-dye laser (585 nm), trunk of a volunteer, followed 1-13 days; oxymetazoline HCl 0.05%, naphazoline HCl 0.03%, tetrahydrozoline HCl 0.05%, phenylephrine HCl 1.0%, brimonidine tartrate 0.2%. In kind it is in vivo, human. The text has this: The applied solution was allowed to air-dry without any dressing. […] The evaluated compounds were:
The sites were followed clinically and photographically 1, 3, 4, 6, 11 and 13 days after the creation of the purpura.

The next data set has as its system laser-induced purpura. The data set can be described thus: Prevention of laser-induced purpura, topical pretreatment before laser (Example 2). Particulars: topical application 3 hours and 1 hour prior to laser; oxymetazoline HCl 0.05%, naphazoline HCl 0.03%, tetrahydrozoline HCl 0.05%, phenylephrine HCl 1.0%, brimonidine tartrate 0.2%. The format is in vivo, human. The text has this:
In order to evaluate the effect of topically applied α1 and α2 adrenergic agonists on the prevention of laser-induced purpura on normal non-actinically damaged skin, seven sites on the trunk of a volunteer were marked and treated with the topical application of a commercially available α1 and/or α2 agonist preparation. Six (of the seven) marked sites were pretreated with the topical application of at least one of the testing preparations. The preparations were applied to the skin and gently rubbed on the skin over and immediately surrounding the laser treatment sites 3 hours prior to and 1 hour prior to the delivery of the laser energy. The applied solution was allowed to air-dry without any dressing. […] After the delivery of the laser energy, each spot received only topical petrolatum jelly 3-4 times/day and no additional application of any testing compound. The sites were followed clinically and photographically 1, 3, 4, 6, 11 and 13 days after the creation of the purpura. The evaluated compounds were:
Site 8: Oxymetazoline hydrochloride (0.05%): A solution of oxymetazoline hydrochloride 0.05% (Afrin® Original 12 Hour Nasal Spray (Schering-Plough Healthcare Products) containing: oxymetazoline hydrochloride 0.05%, benzalkonium chloride solution, edetate disodium, polyethylene glycol, povidone, propylene glycol, purified water, sodium phosphate dibasic, sodium phosphate monobasic.
Site 9: Naphazoline hydrochloride (0.03%): A solution of naphazoline hydrochloride 0.03% (Clear Eyes® Maximum Redness Relief (Prestige Brands Inc.) containing: naphazoline hydrochloride 0.03%, glycerin 0.5%, benzalkonium chloride, boric acid, edetate disodium, purified water, sodium borate).
Site 10: Tetrahydrozoline hydrochloride (0.05%): A solution of tetrahydrozoline hydrochloride 0.05% (Visine® Original (Pfizer Consumer Healthcare) containing: tetrahydrozoline hydrochloride 0.05%, benzalkonium chloride, boric acid, edetate disodium, purified water, sodium borate, sodium chloride).
Site 11: Phenylephrine hydrochloride (1.0%): A solution of phenylephrine hydrochloride 1.0% (Neo-Synephrine® Extra Strength Spray (Bayer HealthCare) containing: phenylephrine hydrochloride 1.0%, anhydrous citric acid, benzalkonium chloride, sodium chloride, sodium citrate, water).
Site 14: No treatment after laser light delivered. (“Control”)

In data set [1] the test system is solar purpura. The data set can be described thus: Treatment and prevention of solar purpura with topical α1 adrenergic agonist (Example 4). The format is in vivo, human. As to the method: Subject 1 is a person with a long-standing history of solar purpura on their forearms. The test area comprised the left dorsal (extensor) forearm from the wrist to the elbow. Pretreatment photos were taken and baseline measurements of the solar purpura on the left extensor forearm from the wrist to the elbow were measured. […] The total area of purpura was 8.94 cm^2. (SEE TABLE 2)
A solution of oxymetazoline hydrochloride 0.05% (Afrin® Original 12 Hour Nasal Spray (Schering-Plough Healthcare Products) containing: oxymetazoline hydrochloride 0.05%, benzalkonium chloride solution, edetate disodium, polyethylene glycol, povidone, propylene glycol, purified water, sodium phosphate dibasic, sodium phosphate monobasic (0.005%)) was applied by the patient to the left dorsal forearm twice daily (morning and evening). […] The sites were followed clinically and photographically.
Subject 2 is a person with a long history of cosmetically disturbing solar purpura on their forearms who wanted to improve the appearance solar (decrease the purpura). The test area comprised the left dorsal (extensor) forearm from the wrist to the elbow. Pretreatment photos were taken and baseline measurements of the solar purpura on the left extensor forearm from the wrist to the elbow were measured. […] The total area of purpura was 1.72 cm^2. (SEE TABLE 3)
A solution of oxymetazoline hydrochloride 0.05% (Afrin® Original 12 Hour Nasal Spray (Schering-Plough Healthcare Products) containing: oxymetazoline hydrochloride 0.05%, benzalkonium chloride solution, edetate disodium, polyethylene glycol, povidone, propylene glycol, purified water, sodium phosphate dibasic, sodium phosphate monobasic (0.005%)) was applied by the patient to the left dorsal forearm once daily (morning). […] The sites were followed clinically and photographically.

Data set [2] relates to solar purpura. Particulars: for Effect: decrease of purpura area compared to mean baseline / Purpura Area / Effect: increase of purpura area compared to mean baseline: 0.2% solution twice daily; for Effect: decrease of purpura area compared to mean baseline / Purpura Area: right dorsal forearm; for Purpura Area: mean baseline 3.67 cm^2; for Effect: increase of purpura area compared to mean baseline: day 24, increase in purpura noted after gardening. The text has this: The use of a topically applied α2 adrenergic agonist for the treatment and prevention of solar purpura (“actinic purpura”, “Bateman's purpura”): In order to evaluate the effect of topically applied α1 and α2 adrenergic agonists on the prevention and treatment of solar purpura, a volunteer with a diagnosis of solar purpura of the forearms treated with a topically applied α2 adrenergic agonist containing solution. The test area comprised the right extensor forearm from the wrist to the elbow. Photos were taken and baseline scores for the solar purpura on their right dorsal forearm from the wrist to the elbow were measured 6 times over a 91 day period before initiating treatment. Two measurements were taken to approximate the area of each purpuric patch.
The solution was applied with a cotton ball to the skin of the entire right extensor forearm from the wrist to the elbow. The sites were followed clinically and photographically.

Setting [3] is: Subject 1, 0.05% solution twice daily.
The mark [4] stands for this setting: Subject 2, 0.05% solution once daily.

Take `CNC[C@H](O)c1cccc(O)c1` [phenylephrine hydrochloride]: in the data set on purpura, the “resolution of the purpura compared with non-treated control site” value is listed as “most pronounced”. The “how pronounced the effect of pretreatment was (smaller purpuric macule/patch, shortened resolution)” value with laser-induced purpura is listed as “more pronounced”.

With `c1ccc2c(CC3=NCCN3)cccc2c1` [naphazoline hydrochloride], the “resolution of the purpura compared with non-treated control site” value in the data set with purpura is “most pronounced”. Also, in the data set with laser-induced purpura, the “how pronounced the effect of pretreatment was (smaller purpuric macule/patch, shortened resolution)” value is recorded as “more pronounced”.

On to `Cc1cc(C(C)(C)C)c(O)c(C)c1CC1=NCCN1` [oxymetazoline hydrochloride], for which the “resolution of the purpura compared with non-treated control site” value in the data set with purpura is on record as “most pronounced”. The “how pronounced the effect of pretreatment was (smaller purpuric macule/patch, shortened resolution)” value in the data set with laser-induced purpura is “more pronounced”. The “Purpura Area” value stood at 9.95 cm^2 in the data set with solar purpura [1] (Subject 1, day 17, 0.05% solution twice daily, left extensor forearm, baseline 8.94 cm^2); 5.73 cm^2 in the data set on solar purpura [1] (Subject 1, day 29, 0.05% solution twice daily, baseline 8.94 cm^2); 5.6 cm^2 in the data set with solar purpura [1] (Subject 1, day 44, 0.05% solution twice daily, baseline 8.94 cm^2); 1.44 cm^2 in the data set with solar purpura [1] (Subject 1, day 81, 0.05% solution twice daily, baseline 8.94 cm^2); 0.42 cm^2 in the data set on solar purpura [1] (Subject 1, day 91 (medication discontinued day 91), 0.05% solution twice daily, baseline 8.94 cm^2); 1.96 cm^2 in the data set with solar purpura [1] (Subject 1, day 98, 7 days off medication, day 91 value 0.42 cm^2). Further, the “Purpura Area” value in the data set on solar purpura [1] (Subject 1, day 112, 14 days off medication, day 91 value 0.42 cm^2) came out at 0.46 cm^2; in the data set on solar purpura [1] (Subject 1, day 122, 24 days off medication, day 91 value 0.42 cm^2), 2.22 cm^2; with solar purpura [1] (Subject 2, day 7, 0.05% solution once daily, left extensor forearm, baseline 1.72 cm^2, hydrochloride), 0.00 cm^2; with solar purpura [1] (Subject 2, day 7, 0.05% solution once daily, left extensor forearm, baseline 1.72 cm^2, listed as oxymetazoline, hydrochloride), 0 cm^2; with solar purpura [1] (Subject 2, day 31, 0.05% solution once daily, baseline 1.72 cm^2, hydrochloride) it was 0.00 cm^2; with solar purpura [1] (Subject 2, day 31, 0.05% solution once daily, baseline 1.72 cm^2, listed as oxymetazoline, hydrochloride), 0 cm^2. In addition, the “Purpura Area” value in the data set with solar purpura [1] (Subject 2, day 36, 0.05% solution once daily, baseline 1.72 cm^2) was determined as 0.36 cm^2. For the same compound, the “Effect: increase of purpura area compared to baseline” value in the data set on solar purpura [1] (Subject 1, day 17, 0.05% solution twice daily, hydrochloride) is listed as “↑ 11% from Baseline”; in the data set with solar purpura [1] (Subject 1, day 17, 0.05% solution twice daily, listed as oxymetazoline, hydrochloride), 11%. In addition, the “Effect: decrease of purpura area compared to baseline” value with solar purpura [1] (Subject 1, day 29, 0.05% solution twice daily, hydrochloride) is on record as “↓ 36% from Baseline”; with solar purpura [1] (Subject 1, day 29, 0.05% solution twice daily, listed as oxymetazoline, hydrochloride), 36%; with solar purpura [1] (Subject 1, day 44, 0.05% solution twice daily, hydrochloride) it was “↓ 37% from Baseline”; in the data set with solar purpura [1] (Subject 1, day 44, 0.05% solution twice daily, listed as oxymetazoline, hydrochloride) it was 37%; in the data set on solar purpura [1] (Subject 1, day 81, 0.05% solution twice daily, hydrochloride), “↓ 84% from Baseline”; in the data set on solar purpura [1] (Subject 1, day 81, 0.05% solution twice daily, listed as oxymetazoline, hydrochloride) it was 84%. Also, the “Effect: decrease of purpura area compared to baseline” value in the data set on solar purpura [1] (Subject 1, day 91, 0.05% solution twice daily, hydrochloride) is reported as “↓ 95% from Baseline”; with solar purpura [1] (Subject 1, day 91, 0.05% solution twice daily, listed as oxymetazoline, hydrochloride), 95%; in the data set on solar purpura [1] (Subject 2, day 7, 0.05% solution once daily, hydrochloride) it was “↓ 100% from Baseline”; in the data set with solar purpura [1] (Subject 2, day 7, 0.05% solution once daily, listed as oxymetazoline, hydrochloride), 100%; in the data set with solar purpura [1] (Subject 2, day 31, 0.05% solution once daily, hydrochloride) it was “↓ 100% from Baseline”; with solar purpura [1] (Subject 2, day 31, 0.05% solution once daily, listed as oxymetazoline, hydrochloride) it was 100%. Besides, the “Effect: increase of purpura area (table: from Baseline; text: from day 91 measurement)” value with solar purpura [1] (Subject 1, day 98, 7 days off medication, hydrochloride) is reported as “↑ 366% from Baseline”; in the data set on solar purpura [1] (Subject 1, day 98, 7 days off medication, listed as oxymetazoline, hydrochloride), 366%; with solar purpura [1] (Subject 1, day 112, 14 days off medication, hydrochloride), “↑ 10% from Baseline”; in the data set on solar purpura [1] (Subject 1, day 112, 14 days off medication, listed as oxymetazoline, hydrochloride) it was 10%; in the data set on solar purpura [1] (Subject 1, day 122, 24 days off medication, hydrochloride), “↑ 428% from Baseline”; with solar purpura [1] (Subject 1, day 122, 24 days off medication, listed as oxymetazoline, hydrochloride) it was 428%. The “patient's impression: new purpuric macules/patches while using the medication” value in the data set on solar purpura [1] (setting [3]) is “fewer new purpuric macules/patches”. Also, the “patient's impression: resolution of purpura that occurred” value in the data set with solar purpura [1] (setting [3]) and with solar purpura [1] (setting [4]) was “resolve more quickly” throughout. In addition, the “side effects, local or systemic, during the treatment” value in the data set with solar purpura [1] (Subject 1, 0.05% solution twice daily, 91 days) was “no side effects, either local or systemic”; in the data set on solar purpura [1] (setting [4]) it was “no side effects, either local or systemic”. Also, the “patient's impression: new purpuric patches while using the medication” value with solar purpura [1] (setting [4]) was “fewer new purpuric patches”. The “overall outcome of the trials on solar purpura” value in the data set on solar purpura [1] (topically applied once or twice daily, two subjects) is “dramatically reduces the size and appearance of purpuric macules/patches and may eliminate them”.

Regarding `c1ccc2c(c1)CCCC2C1=NCCN1` (centres unmarked) [tetrahydrozoline hydrochloride], the “how pronounced the effect of pretreatment was (smaller purpuric macule/patch, shortened resolution)” value in the data set with laser-induced purpura is reported as “more pronounced”.

Take brimonidine tartrate: the “how pronounced the effect of pretreatment was (smaller purpuric macule/patch, shortened resolution)” value in the data set with laser-induced purpura is “less pronounced”. In addition, the “overall outcome of the trial on solar purpura” value in the data set on solar purpura [2] (0.2% topically applied twice daily) was “reduces the size and appearance of purpuric macules/patches”. The “Effect: decrease of purpura area compared to mean baseline” value in the data set with solar purpura [2] (day 7) is “↓ 60% from Baseline”; in the data set on solar purpura [2] (day 7, listed as brimonidine) it was 60%; in the data set on solar purpura [2] (day 14), “↓ 90% from Baseline”; in the data set with solar purpura [2] (day 14, listed as brimonidine), 90%. Moreover, the “Purpura Area” value was found to be 1.48 cm^2 in the data set on solar purpura [2] (day 7, person); 0.35 cm^2 in the data set on solar purpura [2] (day 14); 5.72 cm^2 in the data set with solar purpura [2] (day 24, after gardening); 2.52 cm^2 with solar purpura [2] (day 36). The “Effect: increase of purpura area compared to mean baseline” value is listed as “↑ 34% from Baseline” in the data set with solar purpura [2] and 34% in the data set with solar purpura [2] (listed as brimonidine).
